# Measurements published in patent publication US9028858B2 (Coloplast A/S, priority 2003, dated 2015).
# Where two headings read alike, the source gives them in different places.
# Legend:
# [1] = initial 1.6%-point H2O2, 80° C., 1 week, no PEG 2000
# [2] = tested on: 7 different bacterial strains; details: for bacterial survival rate, Mean: exposed 60 min.; for surviving bacteria, Mean (% of control): 1% hydrogen peroxide
# [3] = 23° C., 8 months, pH 7 without buffer
# Description: Samples were β-sterilized at 50 kGy and stored at 23° C. for 8 months.
# The results were calculated from 86 separate samples (mean value±standard deviation of mean value) (Table 5.1).
# [4] = Various stabilizers: degradation of H2O2 at pH 4, 5.5 and 7; details: no stabilizer, 25 mM citric acid, approx. 1% H2O2
# Description: Therefore the investigation of the influence of the pH-value on the stability in our system was included in the study.
# 24 different kinds of swelling media containing different stabilizers (one without stabilizer) and 3 different pH-values (pH 4, 5.5 and 7) were prepared. […] The concentration of sodium chloride in each of these three swelling media was 0.7% (w/w). Sodium chloride was tested because it could be used as an osmolality increasing agent. […] Two different kinds of material for the stick-pack were used, one with “peel” and one with “non-peel”. […] The irradiation dose was 2*26 kGy.
# The stick-pack with “peel” was a laminated material consisting of PETP (12 μm), aluminium (9 μm) and polyethylene peel (polyethylene+10% polybutylene) (70 μm). […] The stick-packs were made out of a stamped area of 13×35 mm that was welded in the longitudinal direction by 1×3 units on a welder. It was welded by 2×2.2 units across in one end of the stick-pack, and in the other end by 4.0 bar, 130° C. and 3.5 s (breakable seal).
# The stick-packs were stored for stability testing at 23° C. and 40° C. Samples were taken out after irradiation and after 2 and 4 weeks at 40° C. and 8 and 16 weeks at 23° C.
# [5] = Description: The pH value of the latter solution was adjusted to 5.5 with 1 M NaOH. 10.0 mL aliquots of each of the two solutions were taken out and placed in 50 mL brown PE-containers.
# The samples were β-irradiation at Risø National Laboratory. The samples were measured before irradiation, immediately after irradiation and after 2 and 4 weeks storage at 60° C. (triple determination).
compound,measurement,setting,value
"OO [Std H2O2, hydrogen peroxide]",%-point H2O2 after storage,[1],1.13 %-point
same,"Appearance of catheter (0–5; 0 = perfect, 5 = unacceptable)",[1],0
same,Appearance of swelling medium (0–5),[1],0
same,Loss of H2O2 (%/day),[1],4.2 %/day
same,pH after storage,[1],6.28
same,"bacterial survival rate, Mean",[2]; 0.016% hydrogen peroxide,49.8
same,"bacterial survival rate, Mean",[2]; 0.031% hydrogen peroxide,38.1
same,"bacterial survival rate, Mean",[2]; 0.063% hydrogen peroxide,27.8
same,"bacterial survival rate, Mean",[2]; 0.125% hydrogen peroxide,14.5
same,"bacterial survival rate, Mean",[2]; 0.250% hydrogen peroxide,9.1
same,"bacterial survival rate, Mean",[2]; 0.500% hydrogen peroxide,0.2
same,"bacterial survival rate, Mean",[2]; 1.000% hydrogen peroxide,0.0
same,"surviving bacteria, Mean (% of control)",[2]; exposure time 5 min,37 % of control
same,"surviving bacteria, Mean (% of control)",[2]; exposure time 10 min,17 % of control
same,"surviving bacteria, Mean (% of control)",[2]; exposure time 15 min,6 % of control
same,H2O2 loss per day (%),"[3]; initial 1% H2O2, 0% PVP C-15, 50 kGy",0.088 ± 0.029%
same,H2O2 loss per day (%),"[3]; initial 1% H2O2, 6% PVP C-15, 50 kGy",0.167 ± 0.048%
same,calculated amount of degraded H2O2 after 2 years of storage at 23° C.,[4]; pH 4,15.7%
same,calculated amount of degraded H2O2 after 2 years of storage at 23° C.,[4]; pH 5.5,31.7%
same,calculated amount of degraded H2O2 after 2 years of storage at 23° C.,[4]; pH 7,54.7%
same,Concentration of H2O2 (%-point),"[5]; Series I, catheter swelled in a solution of PVP, 0 kGy, 1 week at 60° C.",0.97 %-point
same,Concentration of H2O2 (%-point),"[5]; Series I, catheter swelled in a solution of PVP, 0 kGy, 2 weeks at 60° C.",0.87 %-point
same,Concentration of H2O2 (%-point),"[5]; Series I, catheter swelled in a solution of PVP, 0 kGy, after irradiation",1.00 %-point
same,Concentration of H2O2 (%-point),"[5]; Series I, catheter swelled in a solution of PVP, 25 kGy, 1 week at 60° C.",0.79 %-point
same,Concentration of H2O2 (%-point),"[5]; Series I, catheter swelled in a solution of PVP, 25 kGy, 2 weeks at 60° C.",0.70 %-point
same,Concentration of H2O2 (%-point),"[5]; Series I, catheter swelled in a solution of PVP, 25 kGy, after irradiation",0.85 %-point
same,Concentration of H2O2 (%-point),"[5]; Series I, catheter swelled in a solution of PVP, 50 kGy, 1 week at 60° C.",0.58 %-point
same,Concentration of H2O2 (%-point),"[5]; Series I, catheter swelled in a solution of PVP, 50 kGy, 2 weeks at 60° C.",0.46 %-point
same,Concentration of H2O2 (%-point),"[5]; Series I, catheter swelled in a solution of PVP, 50 kGy, after irradiation",0.73 %-point
same,Concentration of H2O2 (%-point),"[5]; Series I, catheter swelled in a solution of PVP, 75 kGy, 1 week at 60° C.",0.37 %-point
same,Concentration of H2O2 (%-point),"[5]; Series I, catheter swelled in a solution of PVP, 75 kGy, 2 weeks at 60° C.",0.26 %-point
same,Concentration of H2O2 (%-point),"[5]; Series I, catheter swelled in a solution of PVP, 75 kGy, after irradiation",0.57 %-point
same,Concentration of H2O2 (%-point),"[5]; Series II, catheter swelled in distilled water, 0 kGy, 1 week at 60° C.",0.98 %-point
same,Concentration of H2O2 (%-point),"[5]; Series II, catheter swelled in distilled water, 0 kGy, 2 weeks at 60° C.",0.92 %-point
same,Concentration of H2O2 (%-point),"[5]; Series II, catheter swelled in distilled water, 0 kGy, after irradiation",1.00 %-point
same,Concentration of H2O2 (%-point),"[5]; Series II, catheter swelled in distilled water, 25 kGy, 1 week at 60° C.",0.91 %-point
same,Concentration of H2O2 (%-point),"[5]; Series II, catheter swelled in distilled water, 25 kGy, 2 weeks at 60° C.",0.85 %-point
same,Concentration of H2O2 (%-point),"[5]; Series II, catheter swelled in distilled water, 25 kGy, after irradiation",0.93 %-point
same,Concentration of H2O2 (%-point),"[5]; Series II, catheter swelled in distilled water, 50 kGy, 1 week at 60° C.",0.81 %-point
same,Concentration of H2O2 (%-point),"[5]; Series II, catheter swelled in distilled water, 50 kGy, 2 weeks at 60° C.",0.75 %-point
same,Concentration of H2O2 (%-point),"[5]; Series II, catheter swelled in distilled water, 50 kGy, after irradiation",0.87 %-point
same,Concentration of H2O2 (%-point),"[5]; Series II, catheter swelled in distilled water, 75 kGy, 1 week at 60° C.",0.74 %-point
same,Concentration of H2O2 (%-point),"[5]; Series II, catheter swelled in distilled water, 75 kGy, 2 weeks at 60° C.",0.66 %-point
same,Concentration of H2O2 (%-point),"[5]; Series II, catheter swelled in distilled water, 75 kGy, after irradiation",0.81 %-point
same,Concentration of H2O2 (%-point),"[5]; Series III, H2O2-solution in distilled water, 0 kGy, 1 week at 60° C.",0.87 %-point
same,Concentration of H2O2 (%-point),"[5]; Series III, H2O2-solution in distilled water, 0 kGy, 2 weeks at 60° C.",0.76 %-point
same,Concentration of H2O2 (%-point),"[5]; Series III, H2O2-solution in distilled water, 0 kGy, after irradiation",1.00 %-point
same,Concentration of H2O2 (%-point),"[5]; Series III, H2O2-solution in distilled water, 25 kGy, 1 week at 60° C.",0.91 %-point
same,Concentration of H2O2 (%-point),"[5]; Series III, H2O2-solution in distilled water, 25 kGy, 2 weeks at 60° C.",0.88 %-point
same,Concentration of H2O2 (%-point),"[5]; Series III, H2O2-solution in distilled water, 25 kGy, after irradiation",0.95 %-point
same,Concentration of H2O2 (%-point),"[5]; Series III, H2O2-solution in distilled water, 50 kGy, 1 week at 60° C.",0.84 %-point
same,Concentration of H2O2 (%-point),"[5]; Series III, H2O2-solution in distilled water, 50 kGy, 2 weeks at 60° C.",0.85 %-point
same,Concentration of H2O2 (%-point),"[5]; Series III, H2O2-solution in distilled water, 50 kGy, after irradiation",0.92 %-point
same,Concentration of H2O2 (%-point),"[5]; Series III, H2O2-solution in distilled water, 75 kGy, 1 week at 60° C.",0.79 %-point
same,Concentration of H2O2 (%-point),"[5]; Series III, H2O2-solution in distilled water, 75 kGy, 2 weeks at 60° C.",0.77 %-point
same,Concentration of H2O2 (%-point),"[5]; Series III, H2O2-solution in distilled water, 75 kGy, after irradiation",0.89 %-point
